From US11746100B2 (GLOBAL BLOOD THERAPEUTICS, INC., priority 2020, dated 2023)

target: T1, human ferroportin (Homo sapiens, UniProt Q9NP59); assay: Biological in-vitro ferroportin internalization assay (luciferase reporter); format: cell-based; conditions: average pEC50; stably-transfected CHO cell line expressing human ferroportin tagged to a luciferase reporter; 6 h incubation with test compound
T1 construct: luciferase reporter (read with the Nano-Glo Luciferase Assay System); expressed in transfected cells; host or cells: CHO cells, stably transfected, expression induced with doxycycline
T1 sequence (Q9NP59 1-571): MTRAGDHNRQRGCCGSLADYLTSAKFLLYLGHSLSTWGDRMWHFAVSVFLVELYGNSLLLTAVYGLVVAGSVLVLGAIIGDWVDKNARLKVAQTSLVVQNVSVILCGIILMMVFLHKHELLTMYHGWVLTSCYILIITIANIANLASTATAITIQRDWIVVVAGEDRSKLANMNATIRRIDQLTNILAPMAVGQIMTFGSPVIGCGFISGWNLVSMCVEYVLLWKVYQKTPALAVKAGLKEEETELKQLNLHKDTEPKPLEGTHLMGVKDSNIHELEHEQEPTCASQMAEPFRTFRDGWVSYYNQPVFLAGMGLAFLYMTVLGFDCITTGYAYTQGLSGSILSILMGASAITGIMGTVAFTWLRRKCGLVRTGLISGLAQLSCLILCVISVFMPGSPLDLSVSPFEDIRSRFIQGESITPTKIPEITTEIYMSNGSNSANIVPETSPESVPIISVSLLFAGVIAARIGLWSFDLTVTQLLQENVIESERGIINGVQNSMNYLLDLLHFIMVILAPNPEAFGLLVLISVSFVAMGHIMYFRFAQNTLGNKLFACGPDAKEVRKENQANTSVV
Method in brief: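 Stably transfected CHO cells expressing luciferase-tagged human ferroportin, plated 24 h with ferric ammonium citrate and induced with doxycycline for 24 h. Compounds incubated 6 h, then luciferase activity measured by Nano-Glo; average pEC50 reported.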

SMILES | pEC50
CC(C)NC(=O)CN(C)c1nc(-c2cc(OCC(C)(C)O)ccn2)nc2c1CCC2 [Compound 389, 2-({2-[4-(2-hydroxy-2-methylpropoxy)pyridin-2-yl]-5H,6H,7H-cyclopenta[d]pyrimidin-4-yl}(methyl)amino)-N-(propan-2-yl)acetamide] | 7.9
CN(c1nc(-c2cc(OCCO)ccn2)nc2c1CCC2)[C@@H]1CCCN(c2cccc(F)c2)C1=O [Compound 321, (3R)-1-(3-fluorophenyl)-3-({2-[4-(2-hydroxyethoxy)pyridin-2-yl]-5H,6H,7H-cyclopenta[d]pyrimidin-4-yl}(methyl)amino)piperidin-2-one] | 7.1
C[C@H](C(=O)NC(C)(C)C)N(C)c1nc(-c2cn(C)cn2)nc2c1CCC2 [Compound 112, (2R)—N-tert-butyl-2-{methyl[2-(1-methyl-1H-imidazol-4-yl)-5H,6H,7H-cyclopenta[d]pyrimidin-4-yl]amino}propanamide] | 8
COc1ccnc(-c2nc3c(c(N(C)CC(=O)NC4CCOC4)n2)CCC3)c1 (stereo not drawn) [Compound 135, 2-{[2-(4-methoxypyridin-2-yl)-5H,6H,7H-cyclopenta[d]pyrimidin-4-yl](methyl)amino}-N-(oxolan-3-yl)acetamide] | 7.4
CC(C)NC(=O)[C@@H](C)N(C)c1nc(-c2cc(OCCN(C)C)ccn2)nc2c1CCC2 [Compound 433, (2R)-2-[(2-{4-[2-(dimethylamino)ethoxy]pyridin-2-yl}-5H,6H,7H-cyclopenta[d]pyrimidin-4-yl)(methyl)amino]-N-(propan-2-yl)propanamide] | 8.0
CCC(O)(CC)COc1ccnc(-c2nc3c(c(N(C)CC(=O)N[C@@H]4CCC[C@@H]4O)n2)CCC3)c1 [Compound 469, 2-({2-[4-(2-ethyl-2-hydroxybutoxy)pyridin-2-yl]-5H,6H,7H-cyclopenta[d]pyrimidin-4-yl}(methyl)amino)-N-[(1R,2S)-2-hydroxycyclopentyl]acetamidede] | 8.3
COc1ccc(NC(=O)CN(C)c2nc(-c3cc(O[C@H]4CCOC4)ccn3)nc3c2CCC3)cn1 [Compound 347] | 7.6
CN(CC(=O)Nc1ccc(Cl)cc1)c1nc(-c2cc(OC3COC3)ccn2)nc2c1CCC2 [Compound 325, N-(4-chlorophenyl)-2-[methyl({2-[4-(oxetan-3-yloxy)pyridin-2-yl]-5H,6H,7H-cyclopenta[d]pyrimidin-4-yl})amino]acetamide] | 7.9
CN(CC(=O)NC(C)(C)C)c1nc(-c2cc(OCC3COC3)ccn2)nc2c1CCC2 [Compound 211, N-tert-butyl-2-[methyl(2-{4-[(oxetan-3-yl)methoxy]pyridin-2-yl}-5H,6H,7H-cyclopenta[d]pyrimidin-4-yl)amino]acetamide] | 7.9
Cc1ccnc(-c2nc3c(c(N4CCCCCC4)n2)CCC3)c1 [Compound 14, 1-[2-(4-methylpyridin-2-yl)-5H,6H,7H-cyclopenta[d]pyrimidin-4-yl]azepane] | 6.8
Cc1ccc(NC(=O)CN(C)c2nc(-c3cc4c(CO)cccc4cn3)nc3c2CCC3)cn1 [Compound 270, 2-({2-[5-(hydroxymethyl)isoquinolin-3-yl]-5H,6H,7H-cyclopenta[d]pyrimidin-4-yl}(methyl)amino)-N-(6-methylpyridin-3-yl)acetamide] | 7.5
CC(C)(C)NC(=O)CN(CCO)c1nc(-c2ccccn2)nc2c1CCC2 [Compound 37, N-tert-butyl-2-[(2-hydroxyethyl)[2-(pyridin-2-yl)-5H,6H,7H-cyclopenta[d]pyrimidin-4-yl]amino]acetamide] | 6.6
CN(CC(=O)NC1CC1)c1nc(-c2cc(OCC(C)(C)O)ccn2)nc2c1CCC2 [Compound 398, N-cyclopropyl-2-({2-[4-(2-hydroxy-2-methylpropoxy)pyridin-2-yl]-5H,6H,7H-cyclopenta[d]pyrimidin-4-yl}(methyl)amino)acetamide] | 8.1
CN(CC(=O)Nc1cn(C)cn1)c1nc(-c2cc3ccccc3cn2)nc2c1CCC2 [Compound 236, 2-{[2-(isoquinolin-3-yl)-5H,6H,7H-cyclopenta[d]pyrimidin-4-yl](methyl)amino}-N-(1-methyl-1H-imidazol-4-yl)acetamide] | 7.4
CN(CC(=O)Nc1cccc(F)c1)c1nc(-c2cc(OCCN)ccn2)nc2c1CCC2 [Compound 293, 2-({2-[4-(2-aminoethoxy)pyridin-2-yl]-5H,6H,7H-cyclopenta[d]pyrimidin-4-yl}(methyl)amino)-N-(3-fluoropehnyl)acetamide] | 7.9
COc1ccccc1NC(=O)CN(C)c1nc(-c2ccccn2)nc2c1CCC2 [Compound 15, N-(2-methoxyphenyl)-2-{methyl[2-(pyridin-2-yl)-5H,6H,7H-cyclopenta[d]pyrimidin-4-yl]amino}acetamide] | 6.9
C[C@@H](O)COc1ccnc(-c2nc3c(c(N(C)CC(=O)NC4(C)CCC4)n2)CCC3)c1 [Compound 377, 2-[(2-{4-[(2R)-2-hydroxypropoxy]pyridin-2-yl}-5H,6H,7H-cyclopenta[d]pyrimidin-4-yl)(methyl)amino]-N-(1-methylcyclobutyl)acetamide] | 7.8
CN(CC(=O)NC(C)(C)C)c1nc(-c2cc(OCC(C)(C)O)ccn2)nc2c1CCC2=O [Compound 501, N-tert-butyl-2-({2-[4-(2-hydroxy-2-methylpropoxy)pyridin-2-yl]-7-oxo-5H,6H,7H-cyclopenta[d]pyrimidin-4-yl}(methyl)amino)acetamide] | 6.4
COc1ccnc(-c2nc3c(c(N(C)CC(=O)NCCO)n2)CCC3)c1 [Compound 133, N-(2-hydroxyethyl)-2-{[2-(4-methoxypyridin-2-yl)-5H,6H,7H-cyclopenta[d]pyrimidin-4-yl](methyl)amino}acetamide] | 7
COc1ccnc(-c2nc3c(c(N(C)CC(=O)Nc4cccc(F)c4)n2)CCC3)c1 [Compound 138, N-(3-fluorophenyl)-2-{[2-(4-methoxypyridin-2-yl)-5H,6H,7H-cyclopenta[d]pyrimidin-4-yl](methyl)amino}acetamide] | 7.8
C[C@H](C(=O)NC1CC(F)(F)C1)N(C)c1nc(-c2ccccn2)nc2c1CCC2 [Compound 109, (2R)—N-(3,3-difluorocyclobutyl)-2-{methyl[2-(pyridin-2-yl)-5H,6H,7H-cyclopenta[d]pyrimidin-4-yl]amino}propanamide] | 7
C[C@@H](O)COc1ccnc(-c2nc3c(c(N(C)CC(=O)NC(C)(C)C)n2)CCC3)c1 [Compound 366, N-tert-butyl-2-[(2-{4-[(2R)-2-hydroxypropoxy]pyridin-2-yl}-5H,6H,7H-cyclopenta[d]pyrimidin-4-yl)(methyl)amino]acetamide] | 7.7
CN(CC(=O)NC(C)(C)C)c1cc(-c2ncccn2)nc2c1CCC2 [Compound 67, N-tert-butyl-2-{methyl[2-(pyrimidin-2-yl)-5H,6H,7H-cyclopenta[b]pyridin-4-yl]amino}acetamide] | 6.6
CN(CC(=O)N1CCCCCC1)c1nc(-c2cc(OC3COC3)ccn2)nc2c1CCC2 [Compound 358, 1-(azepan-1-yl)-2-[methyl({2-[4-(oxetan-3-yloxy)pyridin-2-yl]-5H,6H,7H-cyclopenta[d]pyrimidin-4-yl})amino]ethan-1-one] | 7.7
CN(CC(=O)NC(C)(C)C)c1nc(-c2cocn2)nc2c1CCC2 [Compound 163, N-tert-butyl-2-{methyl[2-(1,3-oxazol-4-yl)-5H,6H,7H-cyclopenta[d]pyrimidin-4-yl]amino}acetamide] | 5.4
CN(CC(=O)N1CCCCCC1)c1nc(-c2cc(OCCO)ccn2)nc2c1CCC2 [Compound 357, 1-(azepan-1-yl)-2-({2-[4-(2-hydroxyethoxy)pyridin-2-yl]-5H,6H,7H-cyclopenta[d]pyrimidin-4-yl}(methyl)amino)ethan-1-one] | 7.7
CN(CC(=O)NC(C)(C)C)c1nc(-c2cc(OCC(O)CO)ccn2)nc2c1CCC2 (stereo in doubt) [Compound 415, N-tert-butyl-2-[(2-{4-[(2R)-2,3-dihydroxypropoxy]pyridin-2-yl}-5H,6H,7H-cyclopenta[d]pyrimidin-4-yl)(methyl)amino]acetamidede] | 7.7
COc1ccc(NC2CCCN(c3nc(-c4ccccn4)nc4c3CCC4)C2)cc1 (stereo not drawn) [Compound 11, N-(4-methoxyphenyl)-1-[2-(pyridin-2-yl)-5H,6H,7H-cyclopenta[d]pyrimidin-4-yl]piperidin-3-amine] | 6.3
CN(CC(=O)NC1CCOC1)c1nc(-c2cc(OCCO)ccn2)nc2c1CCC2 (stereo not drawn) [Compound 149, 2-({2-[4-(2-hydroxyethoxy)pyridin-2-yl]-5H,6H,7H-cyclopenta[d]pyrimidin-4-yl}(methyl)amino)-N-(oxolan-3-yl)acetamide] | 7.2
CN(CC(=O)NC(C)(C)C)c1nc(-c2nccn2C)nc2c1CCC2 [Compound 162, N-tert-butyl-2-{methyl[2-(1-methyl-1H-imidazol-2-yl)-5H,6H,7H-cyclopenta[d]pyrimidin-4-yl]amino}acetamide] | 5.7
